The values below come from patent US20210284691A1, “CBX8 CHROMDOMAIN INHIBITORS AND THE USES THEREOF” (Purdue Research Foundation, priority 2019, published 2021).

Square brackets hold non-standard residues; d marks the D form. Peptide text beside a SMILES is read from it. * marks the point of attachment. Tyr(3-Cl) = N[C@@H](Cc1ccc(O)c(Cl)c1)C(=O)O; Benzoyl(3,5-Cl2) = O=C(c1cc(Cl)cc(Cl)c1)*; Lys(Et2) = CCN(CC)CCCC[C@H](N)C(=O)O; Gly(cPent) = N[C@H](C(=O)O)C1CCCC1; NH(propargyl) = C#CCN*

The target of test [1] is T1, CBX7 bulk chromatin binding (Homo sapiens, UniProt O95931).
T1 construct: endogenous in cells; host or cells: Hs68 fibroblasts (A17); HEK293T (A20)
Briefly: Sequential salt extraction (SSE) in HEK293T cells. The class given is cell-based. The conditions noted are these: 10 μM.

Test [2] addresses T2, CBX8 binding to chromatin (Homo sapiens, UniProt Q9HC52).
T2 construct: endogenous in cells; host or cells: Hs68 fibroblasts (A16); HEK293T (A19); K562 (A23)
T2 sequence (Q9HC52 1-389): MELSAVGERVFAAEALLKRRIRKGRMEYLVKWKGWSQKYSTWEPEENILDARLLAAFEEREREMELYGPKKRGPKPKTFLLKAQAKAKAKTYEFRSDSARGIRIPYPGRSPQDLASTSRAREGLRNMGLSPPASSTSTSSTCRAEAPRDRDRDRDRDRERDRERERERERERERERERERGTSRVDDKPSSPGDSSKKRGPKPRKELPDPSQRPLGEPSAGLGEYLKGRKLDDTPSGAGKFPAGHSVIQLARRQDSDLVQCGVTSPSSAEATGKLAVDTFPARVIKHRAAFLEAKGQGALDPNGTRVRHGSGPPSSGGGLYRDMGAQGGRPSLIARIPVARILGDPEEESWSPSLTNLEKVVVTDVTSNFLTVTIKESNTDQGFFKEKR
Briefly: ChIP-qPCR in K562 cells. The class given is cell-based. The procedure:
FIGS. 11A-11E: Cellular Activity of CBX2 ChD Ligand. FIG. 11A) Relative cytosolic access of SW2_152F conjugated to a chloroalkane (SW2_152F-CA, SEQ ID NO: 28) was evaluated using chloroalkane penetration assay (CAPA). The half maximal cell penetration value (CP50) of SW2_152F-CA was determined for SW2_152F-CA and CBX8 inhibitor SW2_110A-CA. FIG. 11B) Chemoprecipitations from HEK293T nuclear lysates using biotinylated SW2_152F (SW2_152F-B, SEQ ID NO: 29) were analyzed using immunoblot analysis. FIG. 11C) Analysis and quantification of SW2_152F in abrogating bulk binding of endogenous CBX proteins to chromatin in HEK293T cells by Sequential Salt Extraction. FIG. 11D). Chromatin immunoprecipitation (ChIP) from K562 cells using antibodies against IgG, H3K27me3, CBX2 and CBX8 was followed by quantitative PCR of genomic regions near Tm9SF4 (negative locus), TCF21, Fyn-2, and PAX7. Cells were treated with 10 μM SW2_152F for 4 h prior to harvest. FIG. 11E) Chromatin immunoprecipitation (ChIP) in Hs68 fibroblast cells using antibodies against IgG, CBX7, and CBX8 followed by quantitative PCR of genomic regions at LMNB2 (negative locus), CCND2, and RUNX3. Cells were treated with 100 μM SW2_152F for 4 h prior to harvest. For all qPCR, error bars represent SEM n=3 biological replicates, p-values were calculated using two-tailed Student's t-test, * p<0.05, **=p<0.01, ***=p<0.001, ****=p<0.0001.
ChIP-qPCR. After validating selectivity using lysate and bulk chromatin, we wanted to determine whether the inhibitor can disrupt CBX2 binding to chromatin in live cells. We used chromatin immunoprecipitation (ChIP) followed by quantitative PCR (ChIP-qPCR) of sites with CBX2, CBX8 and H3K27me3 enrichment in K562 ChIP-Seq datasets in ENCODE (M. Azkanaz, et al., Elife 2019). We evaluated effects of compound treatment at both 10 μM and 100 μM SW2_152F. […] In order to evaluate SW2_152F activity against a paralog with no binding to SW2_152F in vitro, CBX7 ChIP-qPCR was performed in Hs68 fibroblast cells, which have no detectable CBX2 expression (H. Pemberton, et al., Genome Biol. 2014).

The next test addresses T3, CBX2 ChD (Homo sapiens, UniProt Q14781).
T3 construct: CBX chromodomain constructs; host or cells: E. coli BL21 CodonPlus RIL
T3 sequence (Q14781 12-70 limits assumed): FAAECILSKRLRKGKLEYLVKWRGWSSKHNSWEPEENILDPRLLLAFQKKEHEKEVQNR
Briefly: Direct fluorescence polarization (FP) binding assay. (In general: In fluorescence polarisation assays a small probe gives low polarisation when free and higher when bound to something large.)

T1 sequence (O95931 whole entry): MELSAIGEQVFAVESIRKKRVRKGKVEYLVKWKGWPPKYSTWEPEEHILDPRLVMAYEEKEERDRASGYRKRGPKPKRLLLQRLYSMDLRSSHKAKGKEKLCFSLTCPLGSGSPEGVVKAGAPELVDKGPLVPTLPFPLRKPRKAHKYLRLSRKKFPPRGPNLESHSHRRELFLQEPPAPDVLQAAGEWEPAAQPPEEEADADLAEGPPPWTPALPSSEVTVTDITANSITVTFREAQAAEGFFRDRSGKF

With `C#CCNC(=O)[C@H](CO)NC(=O)[C@H](CCCCN(CC)CC)NC(=O)[C@@H](NC(=O)[C@@H](NC(=O)[C@H](Cc1ccc(O)c(Cl)c1)NC(=O)c1cc(Cl)cc(Cl)c1)C1CCCC1)[C@@H](C)CC` [SW2_152F] ({Benzoyl(3,5-Cl2)}-[Tyr(3-Cl)][Gly(cPent)]I[Lys(Et2)]S-{NH(propargyl)}), the “CBX7 binding to chromatin, SSE” value in test [1] is given as “No effect”. In addition, the “CBX8 binding, ChIP-qPCR” value in test [2] (10 μM, 4 h) was “not CBX8 binding”; in test [2] (100 μM), “significant reduction of both CBX2 and CBX8 binding”. The “selectivity for CBX2 over the other paralogs” value at CBX2 ChD (calculated from Kd values) is “at least 24 fold”. In addition, on CBX2 ChD (read-out: Kd to CBX2), the Kd (in general, the concentration at which binding is half-saturated) was approximately 80 nM.
